From US4162253A, “Acaricidal agents” (Pfizer Inc., priority 1975, dated 1979)

System: Adult Boophilus microplus
Assay: Topical application test on fully engorged adult Boophilus microplus ticks; overall reduction in anticipated reproduction (eggs laid and hatching)
Type: in vivo
Settings: Rhipicephalus microplus, read-out: In Vitro Activity (topical application) vs. Adult Boophilus microplus % Effect; for inhibition at 0.5 µg/tick: 0.5 μg/tick; for inhibition at 1 µg/tick: 1 μg/tick; for inhibition at 2 µg/tick: 2 μg/tick; for inhibition at 4 µg/tick: 4 μg/tick; for inhibition at 8 µg/tick: 8 μg/tick; for inhibition at 10 µg/tick: 10 μg/tick
Description: In one test, five freshly collected, fully engorged Boophilus microplus adult ticks are used for each acaricidal compound. Using a micro-pipette, 10 micro-liters of a solution containing 10 micro-grams of the acaricidal compound in ethanol or acetone, is applied to the dorsal surface of each of the ticks. The treated ticks are placed in weighted 1"×2" glass vials, weighted and stored at 26° C. and 80% relative humidity in plastic boxes for two weeks. The ticks are then removed from the vials and the vials weighted to give the weight of eggs laid by the ticks. Any reduction in the egg laying of the treated ticks is caculated as a percentage of the eggs laid by untreated control ticks.
The eggs are returned to the incubator for a further 3 weeks after which time the percentage of eggs hatching is estimated.
The percentage effect is calculated as the overall reduction in the anticipated reproduction of the ticks using the weight of eggs laid and the percentage of eggs hatching.
The test may be repeated using smaller amounts of the acaricidal compound for sufficiently active compounds.
The activity of many of the compounds of the Examples detailed hereinafter against the tick Boophilus microplus has been determined.

CCCCCCCCCCCCCCCCC[N+]1=C2SC=C(c3ccccc3)N2CCCC1 [Example 32]
inhibition at 0.5 µg/tick: 0% | inhibition at 1 µg/tick: 12% | inhibition at 2 µg/tick: 66% | inhibition at 4 µg/tick: 94% | inhibition at 8 µg/tick: 95% | inhibition at 10 µg/tick: 100%

CCCCCCCCCCCCCCCC[N+]1=C2SC(c3ccccc3)=CN2CCCC1 [Example 34]
inhibition at 10 µg/tick: 32%

CCCCCCCCCCCCCCCC[N+]1=C2SC3=C(CCCC3)N2CCCC1 [Example 35, 9-hexadecyl-2,3-tetramethylene-5,6,7,8-tetrahydrothiazolo[3,2-a][1,3] diazepinium bromide]
inhibition at 0.5 µg/tick: 0% | inhibition at 1 µg/tick: 8% | inhibition at 2 µg/tick: 13% | inhibition at 4 µg/tick: 70% | inhibition at 8 µg/tick: 100% | inhibition at 10 µg/tick: 100%

CCCCCCCCCCCCCCCC[N+]1=C2SC=CN2CCCC1 [Example 36]
inhibition at 10 µg/tick: 26%

CCCCCCCCCCCC[N+]1=C2SC=C(c3ccccc3)N2CCCC1 [Example 37]
inhibition at 10 µg/tick: 87%

CCCCCCCCCCCC[N+]1=C2SC=C(C)N2CCCC1 [Example 38]
inhibition at 10 µg/tick: 30%

CCCCCCCCCCCCCCCC[N+]1=C2SC=C(c3ccc(F)cc3)N2CCCC1 [Example 41]
inhibition at 0.5 µg/tick: 5% | inhibition at 1 µg/tick: 18% | inhibition at 2 µg/tick: 18% | inhibition at 4 µg/tick: 16% | inhibition at 8 µg/tick: 43% | inhibition at 10 µg/tick: 92%

CCCCCCCCCCCCCCCC[N+]1=C2SC(C)=C(c3ccccc3)N2CC1 [Example 42, 7-cetyl-2-methyl-3-phenyl--5,6-dihydro-imidazo[2,1-b]thiazolium bromide]
inhibition at 0.5 µg/tick: 6% | inhibition at 1 µg/tick: 52% | inhibition at 2 µg/tick: 50% | inhibition at 4 µg/tick: 90% | inhibition at 8 µg/tick: 100% | inhibition at 10 µg/tick: 100%

CCCCCCCCCCCCCCC[N+]1=C2SC(C)=C(c3ccccc3)N2CC1 [Example 43]
inhibition at 0.5 µg/tick: 4% | inhibition at 1 µg/tick: 23% | inhibition at 2 µg/tick: 72% | inhibition at 4 µg/tick: 96% | inhibition at 8 µg/tick: 100% | inhibition at 10 µg/tick: 100%

CCCCCCCCCCCCCCCCC[N+]1=C2SC(C)=C(c3ccccc3)N2CC1 [Example 44]
inhibition at 0.5 µg/tick: 0% | inhibition at 1 µg/tick: 63% | inhibition at 2 µg/tick: 89% | inhibition at 4 µg/tick: 93% | inhibition at 8 µg/tick: 100% | inhibition at 10 µg/tick: 100%

CCCCCCCCCCCCCCCCCC[N+]1=C2SC(C)=C(c3ccccc3)N2CC1 [Example 45]
inhibition at 10 µg/tick: 88%

CCCCCCCCCC[N+]1=C2SC(C)=C(c3ccccc3)N2CC1 [Example 46]
inhibition at 10 µg/tick: 95%
